US8557811B2, “Dual-color imaging method of sodium/calcium activities using two-photon fluorescent probes and preparation method of two-photon fluorescent probes” (Ajou University Industry—Academic Cooperation Foundation, priority 2010, dated 2013)
Several values for one entry are separate records, joined by “and”; a condition that tells them apart may be missing. Equal values may be shown once.

Tests used:
[1] = Spectroscopic measurements (absorption, emission, fluorescence quantum yield); format: physicochemical; settings: for Φ fluorescence photon efficiency: error range ±10%
Protocol: Absorption spectra were measured using a Hewlett-Packard 8453 diode array spectrophotometer, and fluorescence spectra were measured using an Amico-Bowman series 2 emission spectrometer having 1 cm standard quartz cell. Fluorescence quantum yield was determined using coumarin 307 (Φ=0.95 in MeOH) according to a previously known method.
Normalized absorption spectra of BCa1 in 1,4-dioxane, EtOH, DMF and H2O are shown in FIG. 2 (a), and normalized emission spectra of BCa1 in 1,4-dioxane, EtOH, DMF and H2O are shown in FIG. 2 (b).

[2] = Fluorescence response of ANa1 to Na+ in buffer; format: binding
[3] = Two-photon absorption cross section by femtosecond fluorescence spectroscopy; format: physicochemical; settings: for λ^(2)max two-photon excitation wavelength: with cation (BCa1 + Ca2+, ANa1 + Na+); for δΦ two-photon operational cross section: with cation (BCa1: MOPS buffer with excess Ca2+; ANa1 + Na+), error range ±15%
Protocol: Two-photon operational emission δΦ of BCa1 in the MOPS buffer containing excess Ca^2+ was 150 GM at 780 nm, 3- to 5-fold improved over Calcium-Green-Ca^2+ or Fura-2-Ca^2+ (see FIG. 7). Thus, it can be seen that staining of cells with BCa1 can provide brighter TPM images as compared to other commercially available probes.
TPA cross section (6) was measured by femtosecond (fs) fluorescence spectroscopy. BCa1 was dissolved in 30 mM MOPS buffer (2.5 mM CaCl2, 100 mM KCl, pH 7.2) to a concentration of 5.0×10^−6 M, and two-photon excited fluorescence (TPEF) was measured at 740 to 940 nm using fluorescein (8.0×10^−6M, pH=11). TPEF intensity of reference and sample was determined at the same excitation wavelength. TPA cross section was calculated by Equation 1. δ=δr(Ssφrfrcr)/(Srφsfscs) [Equation 1]
In Equation 1, s and r respectively stand for sample and reference molecules, S represents the intensity of a signal collected by the CCD detector, Φ represents the fluorescence quantum yield, f represents the overall fluorescence collection efficiency of the experimental apparatus, c represents molecular density in the solution, and δr represents the TPA cross section of reference molecules.

[4] = Water solubility from fluorescence intensity versus dye concentration; format: physicochemical; settings: H2O with DMSO at 0.20; highest concentration in the linear region; excitation 360 nm
Protocol: A stock solution (1.0×10^−2M) was prepared by dissolving the dye (BCa1) in DMSO. The solution was diluted (to 6.0×10^−3 to 6.0×10^−5 M) and transferred to a cuvette holding H2O (3.0 mL) using a microsyringe. In all cases, the concentration of DMSO in H2O was maintained at 0.20. […] The highest concentration in the linear region was determined as the solubility of BCa1, which was about 5.0 μM in water, being sufficient to stain cells.
One-photon fluorescence spectra of BCa1 are shown in FIG. 1 (a), and the fluorescence intensity of BCa1 in H2O depending on concentrations is shown in FIG. 1 (b). Excitation wavelength was 360 nm.

[5] = Fluorescence titration with free Ca2+ in MOPS buffer (one-photon and two-photon); format: binding
Protocol: This is caused by the blocking of photo-induced electron transfer (PET) resulting from complexation with the metal ions.
One-photon absorption curves of 1 μM BCa1 (30 mM MOPS, 100 mM KCl, pH 7.2) complex in the presence of free Ca^2+ are shown in FIG. 5 (a), one-photon and two-photon fluorescence titration curves are shown in FIG. 5 (b), and one-photon and two-photon Hill curves are shown in FIG. 5 (c).
The dissociation constants of BCa1 for the one-photon and two-photon processes (K^OPd and K^TPd) were calculated from the fluorescence titration curves of FIG. 5 (b).

[6] = Two-photon measurement in BCa1-labeled HeLa cells; format: cell-based
Protocol: HeLa cells were cultured in Dulbecco's modified Eagle's medium (DMEM; Gibco) supplemented with heat-inactivated 10% (v/v) fetal bovine serum (FBS; Gibco), 100 units/mL penicillin and 100 μg/mL streptomycin. The cells were grown under a humidified environment at 37° C. with air/CO2=95:5. Four days before imaging, the cells were harvested with a trypsin-EDTA solution and were transferred to a glass-bottomed dish (MatTek) with […]. The cells were treated at 37° C. for 20 minutes with 2 μM ANa1, and then loaded with 0.5 μM BCa1 at room temperature. 10 minutes later, the cells were imaged after washing 2 times with a reduced calcium-balanced salt solution (RCBSS; 127 mM NaCl, 3.8 mM KCl, 1.2 mM KH2PO4, 0.8 mM MgCl2, 5 mM glucose and 10 mM HEPES buffer).
Two-photon fluorescence microscopic images of the probe-labeled HeLa cells and tissues were obtained using spectral confocal and multiphoton microscopes (Leica TCS SP2).

[7] = One-photon fluorescence of BCa1 with free Ca2+ in LUVs; format: binding; settings: LUVs of DOPC/sphingomyelin/CHL (1:1:1, raft mixture), free Ca2+ 2.5 mM, 25±0.5° C.
Protocol: LUVs for the measurement of one-photon and two-photon spectra were prepared from a hydrated suspension of multilamellar vesicles by means of extrusion. Lipids were dissolved in CHCl3/MeOH (95/5 vol %) and then dried under N2 flow in vacuum. The resulting film was hydrated in MOPS buffer (30 mM MOPS, 100 mM KCl, pH 7.2) by shaking at 60° C. until the suspension became homogeneous. The mixture was subjected to 3 freeze-thaw cycles, and LUVs were extruded therefrom by passing through a membrane having 100 nm pores (Avanti Polar Lipids). To stain the vesicles, BCa1 dissolved in DMSO was added and then 30 minutes was allowed to pass. The proportion of the vesicles to the probe was 300:1. Temperature was measured using a digital thermometer having a precision of 0.1° C.
One-photon fluorescence spectra of complexes of free Ca^2+ (0 to 2.5 mM) and 1 μM BCa1 for LUVs composed of DOPC/sphingomyelin/cholesterol (1:1:1, raft mixture) are shown in FIG. 8 (a), and Hill curves are shown in FIG. 8 (b).
Normalized emission spectra of BCa1 containing free Ca^2+ (2.5 mM) in LUVs composed of DPPC/CHL (black curve), DOPC/sphingomyelin/CHL (1:1:1, raft mixture, blue curve) and DOPC (pink curve) at 25±0.5° C. are shown in FIG. 9 (a), and normalized emission spectra of BCa1 in HeLa cells are shown in FIG. 9 (b). […]

[8] = Relative fluorescence intensity for various cations; settings: 1 μM BCa1
Protocol: (§1) Relative fluorescence intensity of 1 μM BCa1 for various cations are shown in FIG. 6 (a), and the effect of pH on one-photon fluorescence intensity of BCa1 is shown in FIG. 6 (b). […] Thus, the probe allows selective detection of Ca^2+ without minimized interference from other biologically relevant cations.

[9] = Effect of pH on one-photon fluorescence intensity; format: physicochemical
Protocol: as §1

[10] = in MeOH; cited from earlier work
[11] = with cation (BCa1 + Ca2+, ANa1 + Na+)
[12] = two-photon process (value in parentheses)

Row | λ^(1)max one-photon absorption wavelength ([1]; probe without added cation) [nm] | λ^flmax one-photon emission wavelength ([1]; probe without added cation) [nm] | Φ fluorescence photon efficiency ([1]; probe without added cation) | λ^(1)max one-photon absorption wavelength [1, 11] [nm] | λ^flmax one-photon emission wavelength [1, 11] [nm] | Φ fluorescence photon efficiency [1, 11] | λ^(2)max two-photon excitation wavelength [3] [nm] | δΦ two-photon operational cross section [3] [GM] | solubility of BCa1 in water [4] | maximum emissions of the two Gaussian curves fitted to the emission spectrum [6] | maximum emissions of the two Gaussian curves fitted to the emission spectrum [7] | effect of pH on one-photon fluorescence intensity [9] | SMILES | FEF fluorescence enhancement factor (F − Fmin)/Fmin ([2]; one-photon process) | FEF fluorescence enhancement factor (F − Fmin)/Fmin [2, 12] | FEF fluorescence enhancement factor (F − Fmin)/Fmin ([5]; one-photon process) | FEF fluorescence enhancement factor (F − Fmin)/Fmin [5, 12] | fluorescence response to Fe^2+, Cu^2+ and Co^2+ [8] | fluorescence response to Mg^2+, Zn^2+ and Mn^2+ [8] | Φ fluorescence quantum yield of the reference [10]
1 | 367 | 500 | 0.08 | 367 | 500 | 0.65 | 780 | 95 |  |  |  |  | COc1ccccc1N1CCOCCOCCN(c2ccc(NC(=O)CN(C)c3ccc4cc(C(C)=O)ccc4c3)cc2OC)CCOCC1 [ANa1, reference compound] | 8(8) | 8(8) |  |  |  |  | 
2 | 360 | 470 | 0.07 | 360 | 470 | 0.98 | 780 | 150 | about 5.0 μM | 430 nm and 460 nm | 436 nm and 467 nm | not affected by pH | CN(CC(=O)Nc1ccc(N(CC(=O)O)CC(=O)O)c(OCC(=O)N2CCOCC2)c1)c1ccc2cc(-c3nc4ccccc4o3)ccc2c1 [BCa1] |  |  | 13 | 14 | no response at all | weak responses | 
3 |  |  |  |  |  |  |  |  |  |  |  |  | CCNc1cc2oc(=O)cc(C(F)(F)F)c2cc1C [coumarin 307] |  |  |  |  |  |  | 0.95
